This is an account of results in PMC8510478, “Characterization and Identification of Bioactive Polyphenols in the Trapa bispinosa Roxb. Pericarp Extract” (Molecules, 2021).

Structures can show the parent of a compound that is named as a salt. Where two headings read alike, the source gives them in different places.

Series [1] relates to AGE formation in human serum albumin (HSA)/glucose or fructose. As to the kind of experiment: Inhibitory effect on AGE formation (HSA with glucose or fructose, fluorescence). The settings on record: 60 °C, 40 h, means ± SE (n = 3). The class given is biochemical. As for the experimental part:
The antiglycation effects of compounds isolated from TBE and several other related compounds were evaluated based on their AGE inhibitory activities as described previously, with slight modifications. Briefly, the sample solution was added to a reaction mixture containing 83.3 mM phosphate buffer (pH 7.2), 2.0 M glucose, 2.0 M fructose, 8.0 mg/mL human serum albumin (HSA), and distilled water (6:1:1:1:1, v/v). As a control, the vehicle was supplemented instead of the sample solution. For each blank, glucose or fructose was replaced with distilled water, and the total volume was set to 1000 μL. After incubation of the sample mixture at 60 °C for 40 h, the solutions were diluted 8-fold with distilled water, dispensed into a black microplate in 200 µL portions, and their fluorescence intensities were measured at excitation and emission wavelengths of 370 and 465 nm, respectively, using a Power Scan HT (DS Pharma Biomedical Co. Ltd., Osaka, Japan). The inhibitory rate was calculated as; Inhibitory rate (%) = 100 − [(S − SB)/(C − CB)] × 100(2) where S is the relative intensity of the sample solution, C is the relative intensity of the control solution, and SB and CB are the intensities of the glucose or fructose-omitted blank solutions. The experimental data are represented as IC50 (μM) values.

A short description of series [2]: AGE-derived crosslink-cleaving effect (PPD cleavage to benzoic acid, HPLC). Particulars: for Crosslink-Cleaving Activities Relative Ratio: tested samples 100 μg/mL, relative to PTB = 100, means ± SE (n = 3); for AGE cross-link cleaving activity (in words): compared with positive control PTB. As for the experimental part:
The AGE crosslink-cleaving activity of the same samples was evaluated according to the previously described method by Kato et al. with a slight modification. Briefly, the 1 mg/mL of tested samples prepared with H2O were mixed with 1.13 mM PPD solution in MeOH:50 mM phosphate buffer (pH 7.4) (1:1) and incubated at 37 °C for 4 h. After 4 h, the reaction was stopped with 200 μL of 2 M HCl, then the stopped reaction mixtures were centrifuged at 8200× g for 5 min. The amount of benzoic acid in the supernatant was measured by reversed-phase HPLC. The following conditions were applied: column, InertSustain C18 column (150 mm × 4.6 i.d mm., 5 μm); mobile phase, 50 mM phosphate buffer (pH 2.2):CH3CN (80:20) (solvent A) and 50 mM phosphate buffer (pH 2.2):CH3CN (50:50) (solvent B), the gradient program, 0–20 min (solvent B: 0–25%), 20–25 min (solvent B: 25–100%), 25–36 min (solvent B: 100–25%); column temperature, 40 °C; detection, UV at 230 nm; flow rate, 1.0 mL/min. These cleaving effects were calculated as equivalents to benzoic acid.

Series [3] deals with α-glucosidase. As to the kind of experiment: α-Glucosidase inhibitory activity (rat intestinal acetone powder, maltose substrate). The format is biochemical. Particulars: for IC50: maltose, pH 7, 37 °C, means ± SE (n = 3), read-out: Inhibitory Effects on α-Glucosidase Activity IC50. As for the experimental part: The α-glucosidase inhibitory activity was tested according to the previously described method by Kirino et al. with a slight modification. Rat intestinal acetone powder was mixed with 0.1 M phosphate buffer (pH 7) and centrifuged at 18,500× g and 4 °C for 20 min. The resulting supernatant was collected and used as a glucosidase solution for enzymatic assay. Each sample solution (160 μL) was mixed with 250 mM maltose solution (20 μL) in 0.2 M phosphate buffer (pH 7) and then incubated at 37 °C for 3 min. After incubation, the enzymatic reaction was started by adding glucosidase solution from the rat intestine (20 μL) and the resulting reaction mixtures were further incubated at 37 °C for 15 min. After 15 min, the reaction mixtures were immediately heated at 100 °C for 5 min to stop the reaction followed by cooling on ice for 5 min. The amount of glucose in the reaction mixtures was determined using the F-Kit glucose (Roche diagnostics, Co., Tokyo, Japan) by measuring the absorbance at 340 nm. A control was carried out with 0.1 M phosphate buffer (pH 7) instead of sample solution. For the blank, the glucosidase solution was replaced with distilled water. The glucosidase inhibitory rates of tested samples were calculated as; Inhibitory rate (%) = 100 − [(Asample − Ablank)/(Acontrol − Ablank)] × 100(1) where Asample, Acontrol, and Ablank is the absorbance of the tested sample, control, and blank, respectively. The experimental data are represented as IC50 (μM) values.

Series [4] deals with α-glucosidase. Also on record: method as in earlier work. The settings on record: cited from earlier work; for IC50: table lines marked with reference 8, means ± SE (n = 3), read-out: Inhibitory Effects on α-Glucosidase Activity IC50; for Inhibitory activity on α-glucosidase (in words): ellagitannin dimers isolated from T. japonica.
Setting [5] is: HSA/fructose, read-out: Inhibitory Effects on AGE Formation IC50, Fructose.
[6] abbreviates: HSA/glucose, read-out: Inhibitory Effects on AGE Formation IC50, Glucose.

For orientation: IC50 means the point on the concentration scale where inhibition reaches its midpoint. Take `O=C(OC[C@H]1O[C@@H](OC(=O)c2cc(O)c(O)c(O)c2)[C@H](OC(=O)c2cc(O)c(O)c(O)c2)[C@@H](OC(=O)c2cc(O)c(O)c(O)c2)[C@@H]1OC(=O)c1cc(O)c(O)c(O)c1)c1cc(O)c(O)c(O)c1` [1,2,3,4,6-Penta-O-galloyl-β-D-glucose, reference compound]: the IC50 turned out to be 0.2 µM in series [1] (setting [5]), 0.2 µM in series [1] (setting [6]) and 59 ± 0.4 µM on α-glucosidase [3]. The “Crosslink-Cleaving Activities Relative Ratio” value in series [2] was found to be 97.9 ± 2.1.

`N=C(N)NN` [Aminoguanidine, aminoguanidine hydrochloride, reference compound]: the IC50 in series [1] (setting [5]) turned out to be 801 ± 17.7 µM; in series [1] (setting [6]) it was 259 ± 6.8 µM.

`O=C(OC[C@H]1O[C@@H](O)[C@H](OC(=O)c2cc(O)c(O)c(O)c2)[C@@H](O)[C@@H]1O)c1cc(O)c(O)c(O)c1` [Compound 1, 2,6-di-O-galloyl-β-D-glucose]: the IC50 came to 3.3 µM in series [1] (setting [5]) and 1.5 ± 0.1 µM in series [1] (setting [6]). Further, in series [2], the “Crosslink-Cleaving Activities Relative Ratio” value stood at 77.4 ± 4.0.

Consider `O=C(O[C@@H]1O[C@H](CO)[C@@H](O)[C@H](OC(=O)c2cc(O)c(O)c(O)c2)[C@H]1OC(=O)c1cc(O)c(O)c(O)c1)c1cc(O)c(O)c(O)c1` [Compound 2, 1,2,3-tri-O-galloyl-β-D-glucose], for which the IC50 is 0.4 µM in series [1] (setting [5]), 0.4 µM in series [1] (setting [6]) and more than 100 µM at α-glucosidase [4]. For the same compound, the “Crosslink-Cleaving Activities Relative Ratio” value in series [2] stood at 190.5 ± 2.5.

As for `O=C(OC[C@H]1O[C@@H](OC(=O)c2cc(O)c(O)c(O)c2)[C@H](OC(=O)c2cc(O)c(O)c(O)c2)[C@@H](O)[C@@H]1O)c1cc(O)c(O)c(O)c1` [Compound 3, 1,2,6-tri-O-galloyl-β-D-glucose], the half-inhibitory concentration (IC50) is 0.4 µM in series [1] (setting [5]), 0.3 µM in series [1] (setting [6]) and more than 100 µM at α-glucosidase [4]. In addition, the “Crosslink-Cleaving Activities Relative Ratio” value in series [2] is 146.6 ± 12.6.

As for `O=C(OC[C@H]1O[C@@H](O)[C@H](OC(=O)c2cc(O)c(O)c(O)c2)[C@@H](OC(=O)c2cc(O)c(O)c(O)c2)[C@@H]1O)c1cc(O)c(O)c(O)c1` [Compound 4, 2,3,6-tri-O-galloyl-β-D-glucose], the half-inhibitory concentration (IC50) came out at 1 µM in series [1] (setting [5]) and 0.3 µM in series [1] (setting [6]).

For the compound `O=C(OC[C@H]1O[C@@H](OC(=O)c2cc(O)c(O)c(O)c2)[C@H](OC(=O)c2cc(O)c(O)c(O)c2)[C@@H](O)[C@@H]1OC(=O)c1cc(O)c(O)c(O)c1)c1cc(O)c(O)c(O)c1` [Compound 6, 1,2,4,6-tetra-O-galloyl-β-D-glucose], the half-inhibitory concentration (IC50) in series [1] (setting [5]) is 0.3 µM; in series [1] (setting [6]), 0.3 µM; on α-glucosidase [3], more than 100 µM. Besides, the “Crosslink-Cleaving Activities Relative Ratio” value in series [2] is on record as 159.6 ± 12.7.

`O=C(O[C@@H]1O[C@@H]2COC(=O)c3cc(Oc4ccc(O)c(O)c4O)c(O)c(O)c3-c3c(cc(O)c(O)c3O)C(=O)O[C@H]2[C@H](OC(=O)c2cc(O)c(O)c(O)c2)[C@H]1OC(=O)c1cc(O)c(O)c(O)c1)c1cc(O)c(O)c(O)c1` [Compound 8, decarboxylated rugosin A]: the IC50 in series [1] (setting [5]) came out at 0.3 µM; in series [1] (setting [6]) it was 0.3 µM; at α-glucosidase [3], 20.7 ± 0.1 µM. Also, the “Crosslink-Cleaving Activities Relative Ratio” value in series [2] was determined as 233.0 ± 5.8.

Turning to `O=C(O[C@@H]1O[C@@H]2COC(=O)c3cc(Oc4c(C(=O)O[C@H]5C(O)O[C@@H]6COC(=O)c7cc(O)c(O)c(O)c7-c7c(cc(O)c(O)c7O)C(=O)O[C@H]6[C@@H]5OC(=O)c5cc(O)c(O)c(O)c5)cc(O)c(O)c4O)c(O)c(O)c3-c3c(cc(O)c(O)c3O)C(=O)O[C@H]2[C@H](OC(=O)c2cc(O)c(O)c(O)c2)[C@H]1OC(=O)c1cc(O)c(O)c(O)c1)c1cc(O)c(O)c(O)c1` (some centres unmarked) [Compound 9, camptothin B], the IC50 in series [1] (setting [5]) is 0.2 µM; in series [1] (setting [6]), 0.1 µM; on α-glucosidase [3], more than 100 µM. Also, the “Crosslink-Cleaving Activities Relative Ratio” value in series [2] was 180.6 ± 4.2.

On to `COc1cc(C2Oc3c(OC)cc(CCCO)cc3C2COC2OC(CO)C(O)C(O)C2O)ccc1O` [Compound 10, (7′S,8′R)-dihydrodehydrodiconiferyl alcohol-9′-O-β-D-glucoside], for which the concentration for half-maximal inhibition (IC50) in series [1] (setting [5]) is more than 1000 µM; in series [1] (setting [6]), more than 500 µM; at α-glucosidase [3] it was more than 100 µM. For the same compound, the “Crosslink-Cleaving Activities Relative Ratio” value in series [2] amounted to 16.7 ± 1.4. Besides, in the series with α-glucosidase [3], the “α-Glucosidase inhibitory activity (in words)” value was “no inhibitory activity”.

Turning to `O=c1oc2c(Oc3ccc(O)c(O)c3O)c(O)cc3c(=O)oc4c(O)c(O)cc1c4c23` [Compound 11, rubuphenol], the IC50 in series [1] (setting [5]) is 4.7 ± 0.3 µM; in series [1] (setting [6]), 2.4 µM; at α-glucosidase [3], more than 100 µM. Further, the “AGE cross-link cleaving activity (in words)” value in series [2] is given as “remarkable activities”. The “Crosslink-Cleaving Activities Relative Ratio” value in series [2] was determined as 514.8 ± 11.2. Also, the “α-Glucosidase inhibitory activity (in words)” value in the series on α-glucosidase [3] was “no inhibitory activity”.

Take `O=c1oc2c(O)c(Oc3ccc(O)c(O)c3O)cc3c(=O)oc4c(O)c(O)cc1c4c23` [Compound 12, eschweilenol A]: in series [1] (setting [5]), the IC50 was 2.9 ± 0.1 µM. Also, the 50% inhibitory concentration (IC50) in series [1] (setting [6]) is 2.4 µM. In addition, in series [2], the “AGE cross-link cleaving activity (in words)” value was “remarkable activities” and the “Crosslink-Cleaving Activities Relative Ratio” value was found to be 484.5 ± 12.5. In the series with α-glucosidase [3], the “α-Glucosidase inhibitory activity (in words)” value is given as “no inhibitory activity” and the half-inhibitory concentration (IC50) was more than 100 µM.

Consider `COc1cc([C@H]2Oc3c(OC)cc(CCCO)cc3[C@@H]2CO)ccc1O` [Compound 13], for which the IC50 in series [1] (setting [5]) is more than 1000 µM; in series [1] (setting [6]), more than 500 µM; at α-glucosidase [3], more than 100 µM. The “Crosslink-Cleaving Activities Relative Ratio” value in series [2] is 17.2 ± 1.1. Also, in the series with α-glucosidase [3], the “α-Glucosidase inhibitory activity (in words)” value is reported as “no inhibitory activity”.

In the case of `O=c1oc2c(O)c(O)cc3c(=O)oc4c(O)c(O)cc1c4c23` [Ellagic acid, reference compound], the IC50 in series [1] (setting [5]) was 2.5 ± 0.1 µM; in series [1] (setting [6]), 1.8 ± 0.1 µM; on α-glucosidase [3], more than 100 µM. Further, the “Crosslink-Cleaving Activities Relative Ratio” value in series [2] was found to be 11.4 ± 0.1. In addition, the “α-Glucosidase inhibitory activity (in words)” value with α-glucosidase [3] is “little effect”.

Turning to `O=C(C[n+]1ccsc1)c1ccccc1.[Br-]` [N-Phenacylthiazolium bromide (PTB), N-phenacylthiazolium bromide, reference compound], the “Crosslink-Cleaving Activities Relative Ratio” value in series [2] came out at 100.

Regarding `O=C(O[C@@H]1O[C@@H]2COC(=O)c3cc(Oc4c(C(=O)O[C@@H]5O[C@@H]6COC(=O)c7cc(O)c(O)c(O)c7-c7c(cc(O)c(O)c7O)C(=O)O[C@H]6[C@H](OC(=O)c6cc(O)c(O)c(O)c6)[C@H]5OC(=O)c5cc(O)c(O)c(O)c5)cc(O)c(O)c4O)c(O)c(O)c3-c3c(cc(O)c(O)c3O)C(=O)O[C@H]2[C@H](OC(=O)c2cc(O)c(O)c(O)c2)[C@H]1OC(=O)c1cc(O)c(O)c(O)c1)c1cc(O)c(O)c(O)c1` [rugosin D, reference compound], the “Inhibitory activity on α-glucosidase (in words)” value in the series on α-glucosidase [4] was “comparable to that of acarbose”.

For the compound Cornusiin G [reference compound], in the series with α-glucosidase [4], the “Inhibitory activity on α-glucosidase (in words)” value is “comparable to that of acarbose” and the concentration for half-maximal inhibition (IC50) was 6.3 ± 0.1 µM.
